Measured values from patent US20100240653A1, “BIPHENYL SULFONYL AND PHENYL-HETEROARYL SULFONYL MODULATORS OF THE HISTAMINE H3-RECEPTOR USEFUL FOR THE TREATMENT OF DISORDERS RELATED THERETO” (priority 2006, published 2010).

Tests used:
Histamine H3-receptor = Histamine H3-receptor (Rattus norvegicus, UniProt Q9QYN8); experiment: [3H]N-alpha-methyl-histamine competitive histamine H3-receptor binding assay (rat brain cortex membranes); settings: whole rat brain cortex membranes, [3H]-N-α-methyl-histamine 1 nM
Method: The histamine receptor binding assay was conducted using standard laboratory procedures as described below. A crude membrane fraction was prepared from whole rat brain cortex using a polytron to homogenize the tissue followed by differential centrifugation in a HEPES-based buffer containing protease inhibitors. Membranes where frozen at −80° C. until needed. Frozen membranes were thawed and resuspended in ice-cold assay buffer consisting of 50 mM TRIS containing 5 mM EDTA (pH=7.4). 50 micrograms (μg) of membrane protein was added to each well of a 96-well assay plate along with test compound and [^3H]-N-α-methyl-histamine (1 nanomolar (nM) final assay concentration). Imetit was used as an assay positive control at varying concentrations. The plate was incubated for 30 min at room temperature. The assay was terminated by rapid filtration through a 96-well glass fiber filtration plate (GF/C) using a cell harvester (Perkin-Elmer). Captured membranes were washed three times with cold assay buffer and plates were dried at 50° C. 35 microliters (μL) of scintillation cocktail was added to each well and membrane-bound radioactivity was recorded using a TopCount 96-well plate scintillation counter (Perkin-Elmer).

male Sprague Dawley rats = experiment: Blockade of RAMH-induced drinking assay; type: in vivo; settings: rat, 0.3 mg/kg PO, RAMH 3 mg/kg SC, drinking 20 min
Method: When administered to rodents, H3 agonists such as R-α-methyl-histamine (RAMH) induce a drinking response that is sensitive to reversal with an H3 antagonist. Blockade of RAMH-induced drinking can therefore be utilized as an in vivo assay for functional H3 antagonist activity. In this assay, male Sprague Dawley rats (250-350 g) were housed three per cage and maintained under a reverse 12 h light cycle (lights off at 1130 h). At 1030 h on the day of test, rats were individually housed in new cages and food was removed. 120 min later, rats were administered test article (vehicle or H3 antagonist, 0.3 mg/kg PO). 30 min later, water was removed, and RAMH (vehicle or RAMH 3 mg/kg salt SC) was administered. 10 min after administration of RAMH, weighed water bottles were placed in the cages, and drinking was allowed for 20 min. Water consumption was determined for each animal by weighing each bottle to the nearest 0.1 g. Data is expressed as percentage reduction in water intake according to the following formula:
[1−[(ANTAGONIST/RAMH)−(VEHICLE/RAMH)/(VEHICLE/RAMH)−(VEHICLENEHICLE)]]*100

[1] = target: T1, human histamine H3-receptor (Homo sapiens, UniProt Q9Y5N1); experiment: Human histamine H3-receptor binding assay, MDS Pharma Services (Taiwan), Catalogue No. 239810
T1 construct: purchased MDS Pharma Services (Taiwan) 239810
Method: Compounds of the invention were tested for their ability to bind to the human histamine H3-receptor using the MDS Pharma Services (Taiwan) assay, Catalogue No. 239810.

Male Sprague-Dawley rats = experiment: Rat polysomnography (EEG/EMG wakefulness); type: in vivo; settings: over 1 h after oral administration at 0.6 mg/kg
Method: Animals: Male Sprague-Dawley rats (225-350 g) (Harlan, San Diego, Calif.) were singly housed and maintained in a humidity—(30-70%) and temperature—(20-22° C.) controlled facility on a 12 h:12 h light/dark cycle (lights on at 6:30 A.M.) with free access to food (Harlan-Teklad Western Res., Orange, Calif., Rodent Diet 8604) and water. Rats were allowed at least three days of habituation to the animal facility before surgery.
Rats were anaesthetized with a ketamine/xylazine mixture, and surgically prepared for
EEG and EMG recording. After 2-3 weeks of post-surgical recovery, rats were habituated to polypropylene test cages for at least three days. On test days, the rats were placed in the test chambers and habituated overnight. At 10 am the next day, the rats were administered the test compound, connected to the recording apparatus, and placed back into the test chambers for 3 h.
EEG and EMG data were digitized and stored in 10 s epochs over the three hour test period. […] […] Percent increase in wakefulness was then derived for each rat.

Histamine H3-receptor, sequence (Q9QYN8 1-397 isoform Q9QYN8-3): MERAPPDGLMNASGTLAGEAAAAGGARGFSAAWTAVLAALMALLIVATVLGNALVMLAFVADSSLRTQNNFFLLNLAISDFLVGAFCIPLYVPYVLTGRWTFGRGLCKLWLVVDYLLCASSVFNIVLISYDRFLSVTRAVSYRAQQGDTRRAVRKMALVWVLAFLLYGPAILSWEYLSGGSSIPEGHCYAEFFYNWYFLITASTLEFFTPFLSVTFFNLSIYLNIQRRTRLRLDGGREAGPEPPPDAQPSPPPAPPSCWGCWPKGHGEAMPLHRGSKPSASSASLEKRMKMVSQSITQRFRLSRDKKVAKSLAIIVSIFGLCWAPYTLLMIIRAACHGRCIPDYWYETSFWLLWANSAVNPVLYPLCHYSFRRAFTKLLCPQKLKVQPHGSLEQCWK
T1 sequence (Q9Y5N1 whole entry): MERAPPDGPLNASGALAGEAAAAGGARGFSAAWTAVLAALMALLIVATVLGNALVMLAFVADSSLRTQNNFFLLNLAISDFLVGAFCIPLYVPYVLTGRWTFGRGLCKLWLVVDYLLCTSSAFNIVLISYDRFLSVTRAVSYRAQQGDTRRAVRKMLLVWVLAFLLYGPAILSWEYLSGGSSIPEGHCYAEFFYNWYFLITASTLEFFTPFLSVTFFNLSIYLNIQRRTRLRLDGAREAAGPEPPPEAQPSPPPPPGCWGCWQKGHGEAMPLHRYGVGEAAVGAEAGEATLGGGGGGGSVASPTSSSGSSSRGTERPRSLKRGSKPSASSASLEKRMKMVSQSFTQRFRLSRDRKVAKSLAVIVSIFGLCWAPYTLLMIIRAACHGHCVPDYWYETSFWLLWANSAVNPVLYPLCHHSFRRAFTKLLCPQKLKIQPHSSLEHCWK

Row | Ki (Histamine H3-receptor) | SMILES | % inhibition of RAMH-induced drinking (male Sprague Dawley rats) | also measured
1 | 2.4 nM | C[C@@H]1CCCN1CCc1ccc(-c2ccc(S(C)(=O)=O)cc2)cc1 [Cmpd 1, (R)-1-[2-(4′-Methanesulfonyl-biphenyl-4-yl)-ethyl]-2-methyl-pyrrolidine] | – | –
2 | – | CCS(=O)(=O)c1ccc(-c2ccc(CCN3CCC[C@H]3C)cc2)cc1 [Cmpd 2, (R)-1-[2-(4′-Ethanesulfonyl-biphenyl-4-yl)-ethyl]-2-methyl-pyrrolidine] | 82.6 ± 12.9% | –
3 | 3 nM | COCCS(=O)(=O)c1ccc(-c2ccc(CCN3CCC[C@H]3C)cc2)cc1 [Cmpd 3, (R)-1-{2-[4′-(2-Methoxy-ethanesulfonyl)-biphenyl-4-yl]-ethyl}-2-methyl-pyrrolidine] | – | –
4 | – | CCCS(=O)(=O)c1ccc(-c2ccc(CCN3CCC[C@H]3C)cc2)cc1 [Cmpd 5, (R)-2-Methyl-1-{2-[4′-(propane-1-sulfonyl)-biphenyl-4-yl]-ethyl}-pyrrolidine] | – | Ki [1]: 3.7 nM
5 | 1.1 nM | C[C@@H]1CCCN1CCc1ccc(-c2ccc(S(=O)(=O)Cc3ccccc3)cc2)cc1 [Cmpd 6, (R)-2-Methyl-1-[2-(4′-phenylmethanesulfonyl-biphenyl-4-yl)-ethyl]-pyrrolidine] | – | –
6 | – | C[C@@H]1CCCN1CCc1ccc(-c2ccc3c(c2)C(=O)CCS3(=O)=O)cc1 [Cmpd 7, 6-{4-[2-((R)-2-Methyl-pyrrolidin-1-yl)-ethyl]-phenyl}-1,1-dioxo-1λ^6-thiochroman-4-one] | 92.5 ± 15.8% | Ki [1]: 2.9 nM
7 | 1.5 nM | COCCCS(=O)(=O)c1ccc(-c2ccc(CCN3CCC[C@H]3C)cc2)cc1 [Cmpd 8, (R)-1-{2-[4′-(3-Methoxy-propane-1-sulfonyl)-biphenyl-4-yl]-ethyl}-2-methyl-pyrrolidine] | – | –
8 | – | C[C@@H]1CCCN1CCc1ccc(-c2ccc(S(=O)(=O)CCO)cc2)cc1 [Cmpd 10, 2-{4′-[2-((R)-2-Methyl-pyrrolidin-1-yl)-ethyl]-biphenyl-4-sulfonyl}-ethanol] | – | % Increase in wakefulness +/− s.e. (Male Sprague-Dawley rats): 46 ± 15%
9 | – | C[C@@H]1CCCN1CCc1ccc(-c2ccc(S(=O)(=O)CCCO)cc2)cc1 [Cmpd 15, 3-{4′-(2-((R)-2-Methyl-pyrrolidin-1-yl)-ethyl]-biphenyl-4-sulfonyl}-propan-1-ol] | 58.8 ± 16.1% | –
10 | 16 nM | C[C@@H]1CCCN1CCc1ccc(-c2cccc(S(=O)(=O)CCO)c2)cc1 [Cmpd 17, 2-{4′-[2-((R)-2-Methyl-pyrrolidin-1-yl)-ethyl]-biphenyl-3-sulfonyl}-ethanol] | – | –
